Data from patent US20260265525A1, “DEVELOPMENT OF HIGHLY FLUOROGENIC STYRENE PROBES FOR VISUALIZING RNA IN LIVE CELLS” (UNIVERSITY OF SOUTHERN CALIFORNIA, priority 2023, published 2026).

Experiments:
[1] = Spectral and photophysical characterization of free dyes in T.E. buffer; type: physicochemical; conditions: for Stokes shift / molar absorptivity: T.E. buffer; for emission wavelength (maximum) / fluorescence quantum yield of free dye / maximum absorbance wavelength: free dye in T.E. buffer
Experimental: After the synthesis of the styrene dyes, their photophysical properties were evaluated. The spectral and photophysical properties (absorption, emission, molar absorptivity (ε), fluorescence quantum yield (ΦDF), and fluorescence enhancement) of probes 1a-1d were measured in DMSO and T.E. buffer (Tris-HCl, 1 mM EDTA, pH=7.5). FIG. 2D provides measurements of the fluorescent enhancement for several of the fluorescent probes.
(§1) Coumarin 6 was used as a reference dye for MPI, 1a, and 1b and Rhodamine 6G was used as a reference for 1c and 1d. Absorption spectra were collected by Shimadzu UV-1800 spectrophotometer. Samples were loaded in plastic disposable cuvette. Emission spectra were obtained by Photon Technology International QuantaMaster model C-60 Fluorimeter in 1×1 cm^2 quartz cuvettes. Fluorescence quantum yields were then calculated according to the method by Lawson-wood, Upstone, and Evans. (58) The torula yeast type IV RNA (Sigma) solution was prepared as a 200 μg/mL solution in T.E. buffer (Tris-HCl, EDTA, pH 7.6, Bioworld) without sonicating to avoid shearing of nucleic acids. All measurements were taken using samples with a final dye concentration of 10 μM.

torula yeast type IV RNA = experiment: Quantum yield and fluorescence enhancement of dyes incubated with RNA; type: binding; conditions: for quantum yield in RNA solution: 10 μM dye, 200 μg/mL RNA in T.E. buffer; for fluorescence enhancement upon binding RNA: ratio of quantum yield of dye in RNA solution over free dye
Experimental: To determine the fluorescence change of 1a-1d in the presence of RNA, the dyes (10 μM) were incubated with torula yeast type IV RNA in T.E. buffer and measured the spectral and photophysical parameters as described above. Fold-enhancement values were calculated by taking the ratio of the quantum yield of dyes in RNA solution over free dyes.
as §1

DNA from calf thymus = experiment: Fluorescence titration of 1c with nucleic acids or BSA; type: binding; conditions: fluorogenic response with DNA vs RNA
Experimental: Solutions of torula yeast RNA type IV (RNA mixture) and DNA from calf thymus (Sigma) were prepared and stored at 4° C. overnight. Bovine serum albumin (BSA, Thermo Fisher) and Baker's yeast RNA (rRNA, Sigma) solutions were prepared at 2 h before testing. 100 μL of 1 μM 1c were diluted by corresponding substrates solution reaching concentrations ranging from 0 to 1000 μg/mL of nucleic acids or BSA. The resulting mixtures were placed in a 96-well opaque plate. The plate with the mixture was gently shaken for 5 min before being evaluated by a microplate reader.

[2] = system: RNA mixture (torula yeast RNA type IV); experiment: Comparison of fluorogenic response with SYTO RNASelect; type: binding; conditions: same RNA species
Experimental: 100 μL of 1 μM 1c and SYTO RNASelect were diluted by 100 μL solutions of RNA mixture to reach final concentrations ranging from 0 to 1000 μg/mL. The resulting mixtures were placed in a 96-well opaque plate. The plate with the mixture was gently shaken for 5 min before being evaluated by a microplate reader (SpectraMax iD5).

rRNA = experiment: Native-PAGE gel staining; parameters: species or system Baker's yeast
Experimental: 1 L of 10×TBE running buffer was prepared by mixing 108 g of Tris Base, 55 g of boric acid, and 40 mL of 0.5 M EDTA (Apex). The combined solution was diluted to 1 L by filtered H2O. 14 mL of 8% Native-PAGE gel was prepared by mixing 0.7 mL of 10×TBE buffer, 0.14 mL of 10% APS buffer (Bio-Rad), and 3.73 mL of 30% acrylamide solution. The mixture was diluted to 14 mL with filtered water. 28 μL of TEMED (Sigma) was added to the mixture. The gel mixture was transferred into the casting frame placed in a precooled gel chamber. An 18-well cast was put on the top and left for polymerization for 15 min on ice. The gel chamber was filled with cold 0.5×TBE running buffer. The gel was pre-run at 150 V for 40 min. The RNA marker mixture was loaded (5 μL micro-RNA marker+0.4 μL low range marker (Bio-Rad) for one well). 5 μL of rRNA sample was loaded to reach rRNA amount as 1 and 10 μg. The RNA marker and rRNA sample loading had four repeats on the same gel. The gel was run at 150 V for 30 min. The cut gels were stained and shaken in 25 mL of 1×SYBR Gold (Thermo Fisher), 2 μM 1c, 20 μM 1c, and 40 μM 1c for 15 min. The gels were de-stained with 0.5×TBE buffer and shaken for 10 min. The buffer was removed, and the gels were imaged using an Amersham Typhoon Biomolecular […].

live HeLa cells = experiment: Live-cell and time-resolved confocal imaging; type: cell-based; conditions: for cellular localization of fluorescence signals: live HeLa, 20 μM, 30 min; for time after addition at which nucleoli could be clearly discerned: live cells, dye in medium
Experimental: HeLa cells were cultured at a density of 7000 cells/well on chambered glass sides and incubated at 37° C. overnight or until fully adherent. After removing the medium and washing with DPBS (Thermo Fisher), the cells were incubated with dyes in PBS (Thermo Fisher) for 30 min at 37° C. with 5% CO2 on the microscope stage and analyzed directly. Fluorescence images were acquired using a confocal microscope (Leica SP8, Leica Microsystems) and analyzed using ImageJ. MPI (20 μM) was excited at 440 nm, SYTO RNASelect (0.1-1 μM, Thermo Fisher) was excited at 490 nm, 1c (10 nM-20 μM) was excited at 550 nm, and 1d (20 μM) was excited at 500 nm.
HeLa cells were cultured on eight-well chambered glass slides (iBidi μ-slides) and incubated overnight at 37° C. with 5% CO2 until totally adherent. Staining solutions for each dye were prepared in serum-free DMEM and kept warm at 37° C. The cells were monitored from 0 to 30 min, where t=0 is the time right before the addition of the dye. Images were acquired at t=0, 0.5, 1, 2, 5, 10, 15, 20, 25, and 30 min for each dye. Fluorescence images were analyzed and quantified with ImageJ.

PFA-fixed HeLa cells = experiment: Fixed-cell imaging; type: cell-based; conditions: HeLa fixed with 4% PFA
Experimental: HeLa cells were cultured on 6-well plates containing glass coverslips and incubated at 37° C. overnight or until fully adherent. After removing the medium and washing with DPBS, the cells were fixed with 4% paraformaldehyde for 10 min at ambient temperature. After fixation, the cells were rinsed with PBS and incubated with dye solutions in PBS for 30 min at ambient temperature. After incubation, the dye solutions were removed and cells were gently washed with PBS three times. The coverslips were mounted onto glass slides, sealed, and analyzed using confocal microscopy.

fixed HeLa cells = experiment: Ribonuclease (RNase) digest experiment; type: cell-based; conditions: fixed cells treated with RNase
Experimental: HeLa cells were cultured in six-well plates with glass coverslips and incubated at 37° C. overnight to totally adherent. The cells were fixed according to the protocol described above with minor modifications. A solution of 4% paraformaldehyde+0.1% Triton-X was prepared in PBS and used to fix and permeabilize HeLa cells. The cells were incubated with this solution for 20 min at room temperature. After rinsing the cells with PBS, the cells were stained with 1 μM 1c, 1d, or SYTO in PBS for 30 min at room temperature. After removing the staining solution, 0.5 mL of RNase ([…]) and PBS (negative control) was added into each respective well and incubated for 6 h. After incubation, the medium was removed, and the cells were thoroughly washed with PBS three times. The glass coverslips were mounted onto glass slides, sealed, and analyzed using confocal microscopy.

RNA/spermine condensates = experiment: Staining and FLIM imaging of RNA-spermine condensates; parameters: species or system torula yeast; conditions: 10 μM
Experimental: A 1 wt % stock solution of torula yeast RNA type IV was prepared in nuclease-free water and stored in multiple aliquots at −20° C. Final concentrations of RNA ranged from 0.02 to 0.4 wt %. A 1 wt % stock solution of spermine was prepared in deionized water and stored at 4° C. The spermine (Sigma) concentration was fixed at 0.1 wt %. Dye 1c was prepared as 10 mM stock solutions in DMSO. Condensates were prepared in a 5 mM HEPES (pH 7.4, VWR), 1 mM MgCl2 buffer. Stock solutions were added in the following order for the preparation of each sample: deionized water, HEPES, MgCl2, RNA, and spermine. Samples were mixed via gentle pipetting in between the addition of each component. RNA condensates were incubated with 10 μM 1c for 1 min at room temperature. To image the condensates, 20 μL of the incubated sample was added onto a glass coverslip and mounted onto a glass slide. Images were acquired using fluorescence confocal microscopy and FLIM.

[3] = previously reported; cited from earlier work

Stokes shift [1] [nm] | molar absorptivity [1] [M⁻¹ cm⁻¹] | emission wavelength (maximum) [1] [nm] | fluorescence quantum yield of free dye [1] [%] | maximum absorbance wavelength [1] [nm] | fluorescence enhancement upon binding RNA (torula yeast type IV RNA) [fold] | Molecule | quantum yield in RNA solution (torula yeast type IV RNA) [%] | cellular localization of fluorescence signals (live HeLa cells) | time after addition at which nucleoli could be clearly discerned (live HeLa cells) [s] | localization of fluorescence signals in fixed cells (PFA-fixed HeLa cells) | absorption wavelength (reported) [3] | emission wavelength (reported) [3] | also measured
162 | 20600 | 584 | 0.12 | 422 | 104 | Cn1c(/C=C/c2cc[n+](C)cc2)cc2ccccc21.[I-] [Dye 1a] | 9.9 |  |  |  |  |  | 
142 | 24400 | 568 | 0.12 | 410 | 33 | C[n+]1ccc(/C=C/c2cc3ccccc3[nH]2)cc1.[I-] [Dye 1b] | 3.9 |  |  |  |  |  | 
86 | 27500 | 596 | 0.10 | 510 | 490 | C[n+]1ccc(/C=C/c2ccc3ccccn23)cc1.[I-] [Dye 1c] | 49 | primarily within the nucleoli and cytoplasm | 30 | predominantly coming from the nucleoli and cytoplasm |  |  | selectivity for RNA over DNA in vitro (DNA from calf thymus): moderate selectivity for RNA over DNA; fluorogenic response compared with SYTO RNASelect [2]: significantly higher fluorogenic responses than SYTO™ RNASelect; sensitivity of gel staining versus SYBR Gold (rRNA): lower than the commercial standard, SYBR Gold; staining of RNA in PAGE-gels (rRNA): can stain RNA in PAGE-gels; lowest concentration used to resolve nucleoli (live HeLa cells): 10 nM; concentration sufficient for visualizing nucleoli (dose-response study) (live HeLa cells; live HeLa cells): nanomolar concentrations; dependence of nucleolar staining on RNA (fixed HeLa cells): RNA-dependent; partitioning into RNA coacervates (RNA/spermine condensates): readily partitions into RNA coacervates
86 | 34600 | 572 | 0.38 | 486 | 132 | C[n+]1ccc(/C=C/c2ccn3ccccc23)cc1.[I-] [Dye 1d] | 50 | primarily within the nucleoli and cytoplasm | 30 | predominantly coming from the nucleoli and cytoplasm |  |  | 
 |  |  |  |  |  | C[n+]1ccc(/C=C/c2c[nH]c3ccccc23)cc1.[I-] [IN] |  |  |  |  | ~ 440 nm | ~ 540 nm | 
 |  |  |  |  |  | methyl pyridinium indole [MPI] |  |  |  |  | ~ 440 nm | ~ 540 nm | fluorescence quantum yield (reported) [3]: 32%
